Data reported in PubChem BioAssay (NCI).
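48-hour exposure; five concentrations; linearly interpolated endpoints. TGI is the concentration that stops growth completely.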

Assays:
Test in all cases: NCI-60 cell line screen, 48 h
[1] = system: CCRF-CEM leukemia
[2] = system: HCT-15 colon
[3] = system: SNB-75 CNS
[4] = system: NCI-H226 lung
[5] = system: HCT-116 colon
[6] = system: LXFL 529 NSCLC
[7] = system: NCI-H522 lung
[8] = system: OVCAR-3 ovarian
[9] = system: RXF 393 renal
[10] = system: SW-620 colon
[11] = system: CAKI-1 renal
[12] = system: HOP-62 NSCLC
[13] = system: IGROV1 ovarian
[14] = system: OVCAR-4 ovarian
[15] = system: RPMI-8226 leukemia
[16] = system: SN12C renal
[17] = system: KM20L2 colon
[18] = system: SK-MEL-5 melanoma
[19] = system: UACC-62 melanoma
[20] = system: K-562 leukemia
[21] = system: NCI-H460 lung
[22] = system: MOLT-4 leukemia
[23] = system: ACHN renal
[24] = system: SNB-19 CNS
[25] = system: SR leukemia
[26] = system: SK-MEL-28 melanoma
[27] = system: OVCAR-8 ovarian
[28] = system: SF-539 CNS
[29] = system: DMS 114 small cell lung
[30] = system: SF-268 CNS
[31] = system: A498 renal
[32] = system: HOP-18 NSCLC
[33] = system: MALME-3M melanoma
[34] = system: SK-OV-3 ovarian
[35] = system: M14 melanoma
[36] = system: DMS 273 small cell lung
[37] = system: DLD-1 colon
[38] = system: COLO 205 colon
[39] = system: SNB-78 CNS
[40] = system: SK-MEL-2 melanoma
[41] = system: A549 NSCLC
[42] = system: 786-0 renal
[43] = system: M19-MEL melanoma
[44] = system: TK-10 renal
[45] = system: UO-31 renal
[46] = system: KM12 colon
[47] = system: UACC-257 melanoma
[48] = system: HCC-2998 colon
[49] = system: HL-60(TB) leukemia
[50] = system: U251 CNS
[51] = system: HOP-92 NSCLC
[52] = system: LOX IMVI melanoma
[53] = system: EKVX NSCLC
[54] = system: OVCAR-5 ovarian
[55] = system: HT29 colon
[56] = system: SF-295 CNS

Measured: TGI

C=CCC12CC(=O)CCC1CC(=O)C2 (configuration not stated)
not listed: [51] | [52] | [53] | [54] | [55] | [56]
> 100 µM: all other assays above

CCCNC(=O)C(C)(Cl)C(=O)c1ccccc1O (configuration not stated)
not listed: [51] | [52] | [53] | [54] | [55] | [56]
> 100 µM: all other assays above

O=C(Nc1ccn(CCOC(=O)c2ccccc2)c(=O)n1)c1ccccc1
not listed: [22] | [24] | [37] | [48]
> 100 µM: all other assays above
